According to patent US8546440B2, “Substituted bicyclic imidazole derivatives as gamma secretase modulators” (Janssen Pharmaceuticals, Inc., priority 2008, dated 2013):

Key:
Aβtotal = experiment: Demonstration of in vivo efficacy: Aβtotal lowering in brain after single oral dose (Table 13); conditions: mouse brain soluble fraction, mean, compared to untreated animals
Description: (§1) To determine whether acute administration of an Aβ42 lowering agent would reduce Aβ42 levels in vivo, non-transgenic rodents, e.g. mice or rats were used. Alternatively, two to three month old Tg2576 mice expressing APP695 containing the “Swedish” variant can be used or a transgenic mouse model developed by Dr. Fred Van Leuven (K. U. Leuven, Belgium) and co-workers, with neuron-specific expression of a clinical mutant of the human amyloid precursor protein [V717I] (Moechars et al., 1999 J. Biol. Chem. 274, 6483). Young transgenic mice have high levels of Aβ in the brain but no detectable Aβ deposition. At approximately 6-8 months of age, the transgenic mice start to display spontaneous, progressive accumulation of β-amyloid (Aβ) in the brain, eventually resulting in amyloid plaques within the subiculum, hippocampus and cortex. Animals treated with the Aβ42 lowering agent were examined and compared to those untreated or treated with vehicle and brain levels of soluble Aβ42 and total Aβ would be quantitated by standard techniques, for example, using ELISA. Treatment periods varied from hours to days and were adjusted based on the results of the Aβ42 lowering once a time course of onset of effect could be established.
(§2) A typical protocol for measuring Aβ42 lowering in vivo is shown but it is only one of many variations that could be used to optimize the levels of detectable Aβ. For example, Aβ42 lowering compounds were formulated in 20% of Captisol® (a sulfobutyl ether of β-cyclodextrin) in water or 20% hydroxypropyl β cyclodextrin. The Aβ42 lowering agents were administered as a single oral dose or by any acceptable route of administration to overnight fasted animals. After four hours, the animals were sacrificed and Aβ42 levels were analysed.
(§3) Blood was collected by decapitation and exsanguinations in EDTA-treated collection tubes. Blood was centrifuged at 1900 g for 10 minutes at 4° C. and the plasma recovered and flash frozen for later analysis. The brain was removed from the cranium and hindbrain. The cerebellum was removed and the left and right hemisphere were separated. The left hemisphere was stored at −18° C. for quantitative analysis of test compound levels. The right hemisphere was rinsed with phosphate-buffered saline (PBS) buffer and immediately frozen on dry ice and stored at −80° C. until homogenization for biochemical assays.
Mouse brains were resuspended in 10 volumes of 0.4% DEA (diethylamine)/50 mM NaCl pH 10 (for non-transgenic animals) or 0.1% 3-[3-cholamidopropyl)-dimethyl-ammonio]-1-propanesulfonate (CHAPS) in tris buffered saline (TBS) (for transgenic animals) containing protease inhibitors (Roche-11873580001 or 04693159001) per gram of tissue, e.g. for 0.158 g brain, add 1.58 ml of 0.4% DEA. All samples were sonicated for 30 seconds on ice at 20% power output (pulse mode). Homogenates were centrifuged at 221.300×g for 50 min. The resulting high speed supernatants were then transferred to fresh tubes and were optionally further purified before the next step. A portion of the supernatant was neutralized with 10% 0.5 M Tris-HCl and this was used to quantify Aβtotal. […]
In this model at least 20% Aβ42 lowering compared to untreated animals would be advantageous.

Aβ42 = experiment: Demonstration of in vivo efficacy: Aβ42 lowering in brain after single oral dose (Table 13); conditions: mouse brain soluble fraction, ELISA, mean, compared to untreated animals
Description: as §1, §2, §3
Mouse brains were resuspended in 10 volumes of 0.4% DEA (diethylamine)/50 mM NaCl pH 10 (for non-transgenic animals) or 0.1% 3-[3-cholamidopropyl)-dimethyl-ammonio]-1-propanesulfonate (CHAPS) in tris buffered saline (TBS) (for transgenic animals) containing protease inhibitors (Roche-11873580001 or 04693159001) per gram of tissue, e.g. for 0.158 g brain, add 1.58 ml of 0.4% DEA. All samples were sonicated for 30 seconds on ice at 20% power output (pulse mode). Homogenates were centrifuged at 221.300×g for 50 min. The resulting high speed supernatants were then transferred to fresh tubes and were optionally further purified before the next step. A portion of the supernatant was neutralized with 10% 0.5 M Tris-HCl and this was used to quantify Aβtotal.
The obtained supernatants were purified with Water Oasis HLB reverse phase columns (Waters Corp., Milford, Mass.) to remove non-specific immunoreactive material from the brain lysates prior subsequent Aβ detection. Using a vacuum manifold, all solutions were passed through the columns at a rate of approximately 1 ml per minute, so the vacuum pressure was adjusted accordingly throughout the procedure. Columns were preconditioned with 1 ml of 100% MeOH, before equilibration with 1 ml of H2O. Non-neutralized brain lysates were loaded onto the columns. The loaded samples were then washed twice with the first wash performed with 1 ml of 5% MeOH, and the second wash with 1 ml of 30% MeOH. Finally, the Aβ was eluted from the columns and into 100×30 mm glass tubes, with a solution of 90% MeOH with 2% NH4OH. […]

SMILES	Aβtotal (% Ctrl)_Mean (Aβtotal)	melting point	Aβ42 (% Ctrl)_Mean (Aβ42)
COc1cc(Nc2cccn3cc(-c4ccc(F)cc4)nc23)ccc1-n1cnc(C)c1 [Compound 1]	103 % Ctrl	209.2 °C	65 % Ctrl
COc1cc(Nc2cccn3c(Cl)c(-c4ccc(F)cc4)nc23)ccc1-n1cnc(C)c1 [Compound 2]	106 % Ctrl	168.9 °C	100 % Ctrl
COc1cc(Nc2cccn3cc(C4CCOCC4)nc23)ccc1-n1cnc(C)c1 [Compound 4]	111 % Ctrl		93 % Ctrl
COc1cc(Nc2cccn3c(C)c(-c4ccccc4)nc23)ccc1-n1cnc(C)c1 [Compound 5]	96 % Ctrl	177.8 °C	66 % Ctrl
COc1cc(Nc2cccn3c(C)c(-c4ccccc4Cl)nc23)ccc1-n1cnc(C)c1 [Compound 15]	94 % Ctrl	204 °C	62 % Ctrl
COc1cc(Nc2cccn3c(C)c(-c4c(F)cccc4F)nc23)ccc1-n1cnc(C)c1 [Compound 27]	94 % Ctrl	198.2 °C	59 % Ctrl
COc1cc(Nc2cccn3c(C)c(-c4ccccc4C(F)(F)F)nc23)ccc1-n1cnc(C)c1 [Compound 29]	86 % Ctrl		56 % Ctrl
COc1cccc(-c2cn3cccc(Nc4ccc(-n5cnc(C)c5)c(OC)c4)c3n2)c1 [Compound 33]	98 % Ctrl		80 % Ctrl
COc1cc(Nc2cccn3cc(C)nc23)ccc1-n1cnc(C)c1 [Compound 50]	96 % Ctrl		67 % Ctrl
Cc1ncn(-c2ccc(Nc3cccn4cc(-c5ccccc5C)nc34)cc2)n1 [Compound 71]	103 % Ctrl		91 % Ctrl
COc1nc(Nc2cccn3c(C)c(-c4ccccc4C(F)(F)F)nc23)ccc1-n1cnc(C)c1 [Compound 138]	102 % Ctrl		65 % Ctrl
